# Reference: US10195196B2, “1,4-disubstituted pyridazine analogs there of and methods for treating SMN-deficiency-related conditions” (NOVARTIS AG, priority 2012, dated 2019)
# pEC50: −log10 of the molar value.
# Tested on: SMN protein
# Assay: cellular SMN ELISA (SMN protein elevation)
# Format: cell-based
# Settings: myoblast cell line from SMNdelta7 mouse model, 24 hours treatment; for SMN activity Fold: fold activation over DMSO control
# In short: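 SMNdelta7 mouse-derived myoblasts were treated with compound for 24 h, then lysed. SMN protein was quantified by sandwich ELISA (HRP/TMB, 450 nm) and reported as fold over DMSO and EC50, over 20 nM–10 μM or 100 pM–10 μM depending on condition.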
# [1] = ELISA condition 2: compound concentration 100 pM-10 uM
# [2] = ELISA condition 1: compound concentration range 20 nM-10 uM
SMILES,pEC50 [1],SMN activity Fold [1] [Fold],pEC50 [2],SMN activity Fold [2] [Fold]
"CN(c1ccc(-c2cc3ccc(OCCC(C)(C)O)cc3cc2O)nn1)C1CC(C)(C)NC(C)(C)C1 [Example 24-12, 7-(3-hydroxy-3-methylbutoxy)-3-(6-(methyl(2,2,6,6-tetramethylpiperidin-4-yl)amino)pyridazin-3-yl)naphthalen-2-ol]",7.15,2.80,,
"CN(c1ccc(-c2c(O)cc(-c3ccn(C)c(=O)c3)cc2F)nn1)C1CC(C)(C)NC(C)(C)C1 [Example 40-3, 4-(3-fluoro-5-hydroxy-4-(6-(methyl(2,2,6,6-tetramethylpiperidin-4-yl)amino)pyridazin-3-yl)phenyl)-1-methylpyridin-2(1H)-one]",7.96,3.03,,
"Oc1cc2ccccc2cc1-c1ccc(NC2CNC2)nn1 [Example 18-2, 3-[6-(azetidin-3-ylamino)-pyridazin-3-yl]-naphthalen-2-ol]",5.49,1.97,,
"CN(c1ccc(-c2c(O)cc(-c3cnn(C)c3)cc2OC(F)(F)F)nn1)C1CC(C)(C)NC(C)(C)C1 [Example 25-4, 2-(6-(methyl(2,2,6,6-tetramethylpiperidin-4-yl)amino)pyridazin-3-yl)-5-(1-methyl-1H-pyrazol-4-yl)-3-(trifluoromethoxy)phenol]",6.70,2.30,,
"CN(c1ccc(-c2ccc3ccnc(OCc4ccccc4)c3c2)nn1)C1CC(C)(C)NC(C)(C)C1 [Example 39-2, 6-(1-(benzyloxy)isoquinolin-7-yl)-N-methyl-N-(2,2,6,6-tetramethylpiperidin-4-yl)pyridazin-3-amine]",6.39,3.04,,
"COc1ccc(-c2ccc(N(C)C3CC(C)(C)NC(C)(C)C3)nn2)c(O)c1 [Example 3-11, 5-methoxy-2-{6-[methyl-(2,2,6,6-tetramethyl-piperidin-4-yl)-amino]-pyridazin-3-yl}-phenol]",6.66,2.47,,
"Oc1cc(-n2cccn2)ccc1-c1ccc(N2CC3CNC(C3)C2)nn1 (stereo not drawn) [Example 18-8, 2-[6-(3,6-diaza-bicyclo[3.2.1]oct-3-yl)-pyridazin-3-yl]-5-pyrazol-1-yl-phenol]",6.01,2.32,,
"CN1C[C@@H]2CN(c3ccc(-c4ccc(-c5cn[nH]c5)cc4O)nn3)C[C@@H]2C1 [Example 43-3, 2-(6-((3aR,6aS)-5-methylhexahydropyrrolo[3,4-c]pyrrol-2(1H)-yl)pyridazin-3-yl)-5-(1H-pyrazol-4-yl)phenol]",7.72,2.39,,
CN(c1ccc(-c2ccc(-c3ccc(O)nc3)cc2O)nn1)C1CC(C)(C)NC(C)(C)C1 [Example 41-2],7.30,2.68,,
"CN(c1ccc(-c2cc(-c3cn[nH]c3)ccc2O)nn1)C1CC(C)(C)NC(C)(C)C1 [Example 32-1, 2-(6-(methyl(2,2,6,6-tetramethylpiperidin-4-yl)amino)pyridazin-3-yl)-4-(1H-pyrazol-4-yl)phenol]",6.90,2.67,,
"CN(c1ccc(-c2ccc(Cl)cc2O)nn1)C1CC(C)(C)NC(C)(C)C1 [Example 29-1, 5-chloro-2-(6-(methyl(2,2,6,6-tetramethylpiperidin-4-yl)amino)pyridazin-3-yl)phenol]",6.95,2.49,,
"C[C@@H]1C[C@H](Oc2ccc(-c3ccc(-n4cccn4)cc3O)nn2)C[C@H](C)N1 [Example 17-2, 2-(6-(((2S,4R,6R)-2,6-Dimethylpiperidin-4-yl)oxy)pyridazin-3-yl)-5-(1H-pyrazol-1-yl)phenol]",,,7.15,2.62
"CN(c1ccc(-c2cc3c(cc2O)-c2nc(N)sc2C3)nn1)C1CC(C)(C)NC(C)(C)C1 [Example 35-5, 2-amino-6-(6-(methyl(2,2,6,6-tetramethylpiperidin-4-yl)amino)pyridazin-3-yl)-8H-indeno[1,2-d]thiazol-5-ol]",8.22,2.44,,
"CC1(C)CC(Nc2ccc(-c3cc4ccc(O)cc4cc3O)nn2)CC(C)(C)N1 [Example 20-3, 3-(6-((2,2,6,6-tetramethylpiperidin-4-yl)amino)pyridazin-3-yl)naphthalene-2,7-diol]",8.10,3.42,,
"CN(c1ccc(-c2ccc(-c3cnc4n3CCNC4)cc2O)nn1)C1CC(C)(C)NC(C)(C)C1 [Example 42-4, 2-(6-(methyl(2,2,6,6-tetramethylpiperidin-4-yl)amino)pyridazin-3-yl)-5-(5,6,7,8-tetrahydroimidazo[1,2-a]pyrazin-3-yl)phenol]",6.07,2.41,,
"CN(c1ccc(-c2cc3cc(C#N)ccc3s2)nn1)C1CC(C)(C)NC(C)(C)C1 [Example 1-4, 2-(6-(methyl-(2,2,6,6-tetra-methylpiperidin-4-yl)amino)pyridazin-3-yl)benzo[b]-thio-phene-5-carbonitrile]",,,7.05,2.05
"CC1(C)CC(Nc2ccc(-c3ccccc3O)nn2)CC(C)(C)N1 [Example 1-3, 2-(6-(2,2,6,6-tetramethylpiperidin-4-ylamino)-pyridazin-3-yl)phenol]",6.14,2.45,,
"CN(c1ccc(-c2ccccc2O)nn1)C1CC(C)(C)NC(C)(C)C1 [Example 1-7, 2-(6-(methyl-(2,2,6,6-tetra-methylpiperidin-4-yl)amino)-pyridazin-3-yl)phenol]",,,5.81,2.07
"CC1(C)CC(Nc2ccc(-c3c(O)cc(-c4cn[nH]c4)cc3OC(F)(F)F)nn2)CC(C)(C)N1 [Example 25-3, 5-(1H-pyrazol-4-yl)-2-(6-((2,2,6,6-tetramethylpiperidin-4-yl)amino)pyridazin-3-yl)-3-(trifluoromethoxy)phenol]",6.92,2.39,,
"Oc1ccc2cc(-c3ccc(N4CCNCC4)nn3)c(O)cc2c1 [Example 18-18, 3-(6-(piperazin-1-yl)pyridazin-3-yl)naphthalene-2,7-diol]",7.25,2.57,,
"CN(c1ccc(-c2cc(C3=CCCC3)ccc2O)nn1)C1CC(C)(C)NC(C)(C)C1 [Example 32-5, 4-(cyclopent-1-en-1-yl)-2-(6-(methyl(2,2,6,6-tetramethylpiperidin-4-yl)amino)pyridazin-3-yl)phenol]",6.64,2.52,,
"CN1CC[C@@H]2CN(c3ccc(-c4ccc(-c5ccn(C)c(=O)c5)cc4O)nn3)C[C@@H]21 [Example 43-5, 4-(3-hydroxy-4-(6-((3aR,6aR)-1-methylhexahydropyrrolo[3,4-b]pyrrol-5(1H)-yl)pyridazin-3-yl)phenyl)-1-methylpyridin-2(1H)-one]",6.80,2.29,,
"CN(c1ccc(-c2cc3c(cc2O)/C(=N/O)CC3)nn1)C1CC(C)(C)NC(C)(C)C1 [Example 35-3, 6-hydroxy-5-(6-(methyl(2,2,6,6-tetramethylpiperidin-4-yl)amino)pyridazin-3-yl)-2,3-dihydro-1H-inden-1-one oxime]",7.96,2.62,,
C[C@H](O)[C@@H]1CC(Oc2ccc(-c3ccc(-n4cccn4)cc3O)nn2)CC(C)(C)N1 (stereo partly drawn) [Example 23-1],5.44,2.32,,
